From patent US6797726B1, “N-alkoxyalkyl-N,N-dialkylamine derivatives or salts thereof, and remedies for nerve degeneration diseases containing the same” (Toyama Chemical Co., Ltd., priority 1999, dated 2004)

Key:
[1] = system: cultured nerve cells death induced by HNE; test: Activity of inhibiting the HNE-induced nerve cell death (MTT assay); type: cell-based, Wistar rat; conditions: 0.1 μM; HNE 25 μmol/L; cultured rat embryo cerebral cortex nerve cells; 24 hours
Description: The protecting effect against the death of cultured nerve cells induced by HNE was examined by a modification of the method described in the Journal of Neuroscience, Vol. 17, Page 5089 (1997).
Cerebral cortex excised from the brain of an embryo of Wistar rat (embryonal age 17-19 days) was cut into small pieces and then treated with trypsin to dissociate the nerve cells. The cells were spread onto a 48-well tissue-culture plate at a rate of 5×10^5 cells per well, and cultured under a condition of 5% carbon dioxide, 37° C., in a Dulbecco modified Eagle medium to which 10% fetal calf serum and 3.6 mg/mL glucose were added.
In order to inhibit the proliferation of glia cells, cytosine arabinoside was added so as to give a final concentration of 10 μmol/L, from the day one after starting the culture. When the culture had been continued for 2 days, the medium was changed to a Dulbecco modified Eagle medium to which 10% fetal calf serum and 3.6 mg/mL glucose were added. When the culture had been continued for 7-8 days, a test agent was added, after which HNE was immediately added so as to give a final concentration of 25 μmol/L.
The inhibitory activity of an agent on the cultured nerve cell death was […] by using the inhibitory activity on the depression of MTT reducing ability as an index. That is, 24 hours after addition of a test agent, MTT assay [Journal of Immunological Methods, Vol. 65, Page 55 (1983)] developed by Mossmann was carried out, based on which inhibitory rate (%) of the agent on the decrease of MTT assay induced by HNE was calculated.
Inhibitory rate=[MTT assay value of (HNE+agent)−added group)−(MTT assay value of HNE−added group)]÷(MTT assay value of no addition group−MTT assay value of HNE−added group)]×100

ddY male mice = test: Anti-hypoxic activity; type: in vivo; conditions: 100 mg/kg orally, 30 minutes after administration, gas 4% oxygen / 96% nitrogen at 5 L/minute; for response vs control in vivo at 100 mg/kg: Mus musculus, po, 0.5 h, read-out: Anti-hypoxic activity: (survival time of mouse in administered group)÷(survival time of mouse in control group)×100
Description: A test compound (100 mg/kg) dissolved in distilled water is orally administered to ddY male mice of 5-6 weeks age (6-10 heads per group). Thirty minutes after the administration, each mouse was introduced into a glass vessel, and a gas mixture consisting of 4% of oxygen and 96% of nitrogen was passed through the glass vessel at a rate of 5 L/minute. The period of the time from the beginning of sending the gas to the death of the animal was measured.
To the control group, only distilled water was orally given. Anti-hypoxic activity of test compound was calculated according to the following equation:
(Survival time of mouse in administered group)÷(Survival time of mouse in control group)×100(%)

[2] = system: cultured nerve cell death induced by Aβ; test: Activity of inhibiting the Aβ-induced nerve cell death (MTT assay); type: cell-based, Wistar rat; conditions: 0.1 μM; Aβ (25-35) 20 μmol/L; cultured rat embryo cerebral cortex nerve cells
Description: The effect of inhibiting the death of cultured nerve cell induced by Aβ was examined by a modification of the method described in Brain Research, Vol. 639, Page 240 (1994).
Cerebral cortex excised from the brain of an embryo of Wistar rat (embryonal age 17-19 days) was cut into small pieces and then treated with trypsin to dissociate the nerve cells. The cells were spread onto a 48-well tissue-culture plate at a rate of 1×10^5 cells per well, and cultured under a condition of 5% carbon dioxide, 37° C., in a Dulbecco modified Eagle medium to which B27 additives (product of GIBCO BRL) and 3.6 mg/mL glucose were added.
When the cultured had been continued for 12-13 days, a solution of potassium chloride was added so as to give a final concentration of 25 mmol/L, immediately after which a test agent was added. Twenty four hours after addition of the test agent, Aβ (25-35 peptide residues) dissolved in distilled water was added so as to give a final concentration of 20 μmol/L. Twenty four hours after addition of Aβ, the medium was changed to a medium prepared by adding test compound to Dulbecco modified Eagle medium to which B27 and 3.6 mg/mL glucose were added.
The inhibitory activity of test agent on the cultured nerve cell death was expressed by using the activity of inhibiting the decrease of MTT reducing ability as an index. That is, 48 hours after changing the medium, MTT assay developed by Mossmann [Journal of Immunological Methods, Vol. 65, Page 55 (1983)] was carried out, and the inhibition rate (%) of the agent on the decrease of MTT assay value induced by Aβ was calculated.
Inhibition rate=[(Aβ+MTT assay value of agent−added group)−(MTT assay value of Aβ−added group)]÷[MTT assay value of no addition group−MTT assay value of Aβ−added group]×100

sciatic nerve = test: Nerve-regeneration promoting activity (crushed sciatic nerve); type: in vivo; conditions: 10 mg/kg intra-abdominally, 1 hour after crushing then twice per day for 5 days, SD rats, measured six days after operation
Description: The test was carried out according to the description of Experimental Neurology, Vol. 140, Page 198 (1996). SD rats (male, 6 weeks age, body weight 160-200 g) were anesthetized with Pentobarbital. The left sciatic nerve was exposed from the upper femoral muscular texture and peeled off from the surrounding texture, while taking care so as to give no injury to the muscular fiber. […] The crushed zone was marked with a thread at the end of neurilemma, and the operated portion was sutured. One hour after the crushing, a test compound dissolved in physiological salt solution was administered intra-abdominally at a dosage of 10 mg/kg. Thereafter, the same administration as above was repeated twice per day far 5 days. Six days after the operation, the operated portion was again opened under an anesthesia using Pentobarbital to expose the sciatic nerve, and a forceps was made to contact to the nerve from a position about 25 mm distant from the crushed part. The forceps was slowly moved toward the crushed part until a reflex reaction appeared. […] To the control group, only a saline was given. The sciatic nerve regeneration rate of the test compound was calculated according to the following equation: (Regeneration distance in administration group)÷(Regeneration distance in control group)×100(%)

[3] = system: nerve cell death caused by Aβ; conditions: Society for Neuroscience, Abstracts, Vol. 24, No. 1, Page 228 (1998); cited from earlier work
NGF = conditions: WO96/12717; cited from earlier work

Compound | Inhibitory rate on the decrease of MTT assay induced by HNE [1] [%] | Inhibition rate on the decrease of MTT assay value induced by Aβ [2] [%] | Regeneration rate of sciatic nerve: (regeneration distance in administration group)÷(regeneration distance in control group)×100 (sciatic nerve) [%] | other results
CN(CCO)CCOCCc1ccc2sccc2c1.O=C(O)C(=O)O [Example 68, 2-{[2-(2-Benzo[b]thiophen-5-ylethoxy)ethyl]-(methyl)amino}-1-ethanol oxalate] | 57 | 28 | – | response vs control in vivo at 100 mg/kg (ddY male mice): 202%
CN(CCO)CCCOCCc1ccc2sccc2c1.O=C(O)C(=O)O [Example 76, 2-{[3-(2-benzo[b]thiophen-5-ylethoxy)propyl]-(methyl)amino}-1-ethanol oxalate] | 49 | – | – | response vs control in vivo at 100 mg/kg (ddY male mice): 194%
CCN(CC)CCOCCc1ccc2sccc2c1.O=C(O)C(=O)O [Example 10] | 58 | – | 117 | Anti-hypoxic activity: (survival time of mouse in administered group)÷(survival time of mouse in control group)×100 (ddY male mice): 170%
CN(CCO)CCOCCc1c(F)cc2ccsc2c1F.Cl [Example 137, 2-[{2-[2-(5,7-Difluorobenzo[b]thiophen-6-yl)ethoxy]ethyl}(methyl)amino]-1-ethanol hydrochloride] | – | 37 | – | melting point: 95.5 to 97.5 °C
CN(C)CCOCCc1ccc2sccc2c1.Cl [Example 16] | – | – | 115 | Anti-hypoxic activity: (survival time of mouse in administered group)÷(survival time of mouse in control group)×100 (ddY male mice): 158%
2-[[2-(3-Benzo[b]thiophen-5-ylpropyl)-ethyl](methyl)amino]-1-ethanol oxalate [Example 119] | – | 39 | – | –
CCN(CC)CCOCCc1ccc2sc(-c3ccccc3)cc2c1.Cl [Example 27, N,N-Diethyl-N-{2-[2-(2-phenylbenzo[b]-thiophen-5-yl)ethoxy]ethyl}-amine hydrochloride] | – | – | 126 | melting point: 131 to 138 °C
CCN(CC)CCOC[C@H](O)c1ccc2sccc2c1.Cl [Example T-588, (R)-1-(benzo[b]thiophen-5-yl)-2-[2-(N,N-diethylamino)ethoxy]ethanol hydrochloride] | – | – | – | Protective action on the nerve cell death caused by Aβ [3]: protective action; Activity of reinforcing the function of NGF (NGF): activity of reinforcing the function of NGF
